Measurements published in PMC12271471, “Direct synthesis of mycophenolic acid aryl esters with antioxidant and antiproliferative properties” (Scientific Reports, 2025).

What was measured:
[1] = DPPH radical scavenging test (colorimetric); conditions: concentration scavenging 50% of DPPH radicals; 10 min, room temperature, 517 nm; mean ± SD
Experimental: Antioxidative properties of the obtained MPA derivatives were assessed chemically using a colorimetric DPPH test. The IC50 value represents the scavenging activity, defined as the concentration of a compound required to scavenge 50% of DPPH radicals.
Briefly, 400 µL solution of each synthesized compound with different concentrations (20–1000 µg/mL) was added to 1.6 mL DPPH solution (100 µmol/L). After shaking, the mixture was incubated at room temperature in the dark for 10 min, and then the absorbance was measured at 517 nm. The %Scavenging activity was calculated by using the formula: […]
The scavenging activity was expressed as IC50 value, defined as the concentration (mM) of compound required for scavenging DPPH radicals by 50%. IC50 values were determined by linear regression analysis using at least three different concentrations in duplicate.
Three different concentrations were prepared for each sample, while each one was analyzed in duplicate. […] The statistical analysis was performed using Tukey’s HSD test (p < 0.05). The statistical software Statistica 10 software (StatSoft Inc., Tulsa, OK, USA) was implemented for this analysis.

[2] = test system: PBMCs; experiment: XTT cytotoxicity test on PBMCs; type: cell-based; conditions: Homo sapiens, PBMC, 72 h (ESI: 96 h), viability, mean ± SD, read-out: Relative IC50 PBMCs (XTT)
Experimental: (§1) Table 3 presents the IC50 values obtained from the XTT test on PBMCs and the T-Jurkat cell line, using MPA and MMF as standards. These values indicate the concentration of each compound required to reduce the viability of PBMCs (healthy cells) and T-Jurkat cells (T-cell leukemia) by 50% compared to the control. Cells were treated with compounds for 72 h (PBMCs) or 48 h (T-Jurkat), followed by a colorimetric XTT test. The results are illustrated in ESI Fig. S2 as a viability curve in relation to concentration.
Biological evaluation — PBMC and T-Jurkat cells […]
(§2) Human peripheral blood mononuclear cells (PBMCs) were isolated from buffy coats provided by anonymous, healthy volunteers with an average age of 35±4 years during routine transfusion procedure. These samples were received by the Authors from the Regional Centre for Blood Donation and Treatment in Gdańsk (Poland). […]
(§3) solely for PBMCs isolation. PBMCs were suspended in a complete X-VIVO medium, consisting of X-VIVO20, 10% heat-inactivated human AB serum, penicillin (100 U/ml), and streptomycin ([…]).
(§4) MPA derivatives preparation
(§5) To achieve the desired concentrations of the tested compounds, the substances were first dissolved in DMSO to reach a final concentration of 0.01 M. The solutions were then diluted in the appropriate additive-free medium (RPMI-1640 for T-Jurkat cells and X-VIVO20 for PBMCs) to obtain […]
(§6) Peripheral blood mononuclear cells were isolated by gradient centrifugation, as described previously. Buffy coats were diluted with phosphate-buffered saline (PBS, pH = 7.4, ThermoFisher Scientific) in a 1:1 ratio, layered at Ficoll-Paque™ PLUS (VWR International), and centrifuged at 800 × g for 20 minutes. The PBMC layer was collected and washed twice with PBS (1st wash: 600 × g for 10 minutes; 2nd wash: 600 × g for 5 minutes). Cell amount and viability were assessed using the Bio-Rad TC20™ automated cell counter combined with trypan blue staining.
(§7) XTT dye-based in vitro cytotoxicity test
(§8) The cytotoxic effects of mycophenolic acid (MPA) derivatives were assessed using an in vitro XTT-based assay (Roche). PBMCs in complete X-VIVO20 medium and T-Jurkat cells in complete RPMI-1640 medium were seeded into 96-well plates at a concentration of 5∙10^5 cells/50 µl per well. 50 µl of tested compounds were added to the experimental wells to achieve final concentrations of 50, 25, 10, 5, 1, 0.1, and 0.01 µM. The background control consisted of the medium without cells, while untreated cells served as the positive control. After incubating for 48 hours for T-Jurkat cells and 96 hours for PBMCs in a humidified atmosphere with 5% CO2 at 37°C, 50 µl of freshly prepared XTT reagent was added to all wells according to the manufacturer's instructions. The plates were then incubated for an additional 24 hours under the same conditions. The conversion of the water-soluble yellow XTT tetrazolium salt to orange formazan was quantified by measuring the optical density (OD) at 450 nm using an Agilent BioTek Epoch Microplate Spectrophotometer (Agilent Technologies), with a reference wavelength of 690 nm. The results were expressed as IC50 values for compounds that […]
(§9) inhibited cell viability by more than 50%. […]
PBMCs were suspended in a 15 mL centrifuge tube at a concentration of 10-30 × 10⁶ cells in 1 mL of PBS, then, 2 μL of 1 mM VPD 450 dye solution was added, incubated for 15 min at 37°C, washed with a 9-fold volume of warm PBS and centrifuged at 400 x g for 5 min. Then, the cells were suspended in 10 mL of X-VIVO medium with 10% FBS and centrifuged again at 400 x g for 5 min. After suspending the cells in the complete medium, the staining level was checked using flow cytometry. The cells thus obtained were stimulated with anti-CD3/anti-CD28 antibodies as described previously (see VPD450 dye-based in vitro cell proliferation test). To perform the GMP test, a proper amount of GMP was added to each well to reach its final concentration of 50 μM, and then incubated for 72 hours. Proliferative […]

[3] = test system: T-Jurkat cells; experiment: VPD450 proliferation test (flow cytometry) on T-Jurkat cells; type: cell-based, human; conditions: for EC50: Homo sapiens, T-Jurkat, 48 h, mean ± SD; for IS internal selectivity (EC50 PBMCs / EC50 T-Jurkat): ratio between VPD450 EC50 values for PBMCs and T-Jurkat cell line
Experimental: (§10) These values indicate the concentration of any compound at which proliferation of PBMCs (healthy cells), and T-Jurkat cells (T-cell leukemia), is inhibited by 50% compared to the control. Cells were treated with the compounds for 72 h (PBMCs) or 48 h (T-Jurkat), followed by a […] VPD450 test. The results are presented in ESI Fig. S3 as proliferation curves concerning concentration.
(§11) ESI Figure 3. Concentration-dependent change in proliferation under the treatment of ester derivatives of MPA. (A) VPD450-labelled PBMCs were cultured in the presence of different concentrations (100; 50; 25; 10; 1; 0.1, and 0.01 μM) of MPA, MMF, and ester derivatives, and stimulated with magnetic beads coated with anti-CD3 and anti-CD28 antibodies for 72 hours. (B) VPD450-labelled T-Jurkat cells were cultured in the presence of different concentrations (100; 10; 1; 0.1 and 0.01 μM) of MPA and ester derivatives for 48 hours. The plots were separated based on the type of ester derivative (P or MP). Cell proliferation was analyzed using flow cytometry. The results are expressed […]
(§12) (1 picture or pasted object on this page, not shown here) […]
(§13) inhibited cell viability by more than 50%. Each experiment was conducted in triplicate, and the final […]
(§14) VPD450 dye-based in vitro cell proliferation test
(§15) PBMCs and T-Jurkat cells were washed twice with warm PBS (37°C), re-suspended in fresh PBS at a final concentration of 10-30∙10^6 cells/ml, and labelled with 1 µl of VPD450 (BD Biosciences) at 37°C for 15 minutes, with vortexing every 5 minutes to ensure uniform staining. Subsequently, cells were washed with PBS, then with the complete medium (X-VIVO20 for PBMCs and RPMI-1640 for T-Jurkat cells), next re-suspended in fresh complete medium and seeded into 96-well plates at a concentration of 1∙10^6 cells per well. PBMCs were additionally stimulated with magnetic beads coated with anti-CD3 and anti-CD28 antibodies (Invitrogen) at a 2:1 cell-to-bead ratio. To the experimental wells, 100 µl of the MPA derivatives were added to achieve final concentrations of 50, 25, 10, 5, 1, 0.1, and 0.01 µM. In parallel, control wells containing stained but unstimulated cells and stained, stimulated cells were prepared at the same concentration. Cell proliferation was analyzed using an LSRFortessa flow cytometer (BD Biosciences) and Kaluza C Flow Cytometry Analysis Software (Beckman Coulter). […]
(§16) Statistical analysis was conducted using GraphPad Prism 9 (GraphPad Software Inc).
(§17) Differences between MMF, MPA and its new derivatives were assessed using a two-tailed unpaired Student’s t-test, with statistical significance defined as p < 0.05. EC50 and IC50 values were determined by fitting data to a four-parameter non-linear regression model in GraphPad Prism 9. Statistical significance was evaluated using the t-test.

[4] = test system: PBMCs; experiment: VPD450 proliferation test (flow cytometry) on PBMCs; type: cell-based, human; conditions: for EC50: Homo sapiens, PBMC, PBMCs stimulated with anti-CD3/anti-CD28 beads, 72 h, mean ± SD; for SI selectivity index PBMCs (IC50/EC50): ratio between IC50 (XTT) and EC50 (VPD450) on PBMCs
Experimental: as §10, §11, §12, §13, §14, §15, §16, §17

[5] = test system: T-Jurkat cells; experiment: XTT cytotoxicity test on T-Jurkat cell line; type: cell-based, human
Experimental: as §1
Biological evaluation — PBMC and T-Jurkat cells
The T-Jurkat cell line (Clone E6-1, ATCC TIB-152), derived from a human acute T-cell leukemia, was obtained from the cell bank of the Department of Medical Immunology at the Medical University of Gdańsk. Before experimentation, the cells were thawed and cultured for about 7 days to reach the logarithmic phase of growth. The T-Jurkat cell line was suspended in a complete RPMI medium, which included RPMI-1640, 10% FBS, penicillin (100 U/ml), and streptomycin ([…]).
as §2, §3, §4, §5, §6, §7, §8, §9
PBMCs were suspended in a 15 mL centrifuge tube at a concentration of 10-30 × 10⁶ cells in 1 mL of PBS, then, 2 μL of 1 mM VPD 450 dye solution was added, incubated for 15 min at 37°C, washed with a 9-fold volume of warm PBS and centrifuged at 400 x g for 5 min. Then, the cells were suspended […]

SMILES	IC50 [1] [µM]	IC50 [2] [µM]	EC50 [3] [µM]	SI selectivity index T-Jurkat (IC50/EC50) ([3]; ratio between IC50 (XTT) and EC50 (VPD450) on T-Jurkat cell line)	IS internal selectivity (EC50 PBMCs / EC50 T-Jurkat) [3]	EC50 [4] [µM]	SI selectivity index PBMCs (IC50/EC50) [4]	IC50 ([5]; Homo sapiens, T-Jurkat, 48 h, viability, mean ± SD, read-out: Relative IC50 T-Jurkat (XTT)) [µM]	IS internal selectivity (IC50 PBMCs / IC50 T-Jurkat) ([5]; ratio between XTT IC50 values for PBMCs and T-Jurkat cell line)
O=C1O[C@H]([C@@H](O)CO)C(O)=C1O [Ascorbic acid, reference compound]	545								
COc1cc(/C=C/C(C)=O)ccc1OC(=O)CC/C(C)=C/Cc1c(O)c2c(c(C)c1OC)COC2=O [MP5]		30.698 ± 0.024	1.08 ± 0.036	2.149	10.542	11.406 ± 0.003	2.691	2.325 ± 0.004	13.203
COc1cc(CCC(C)=O)ccc1OC(=O)CC/C(C)=C/Cc1c(O)c2c(c(C)c1OC)COC2=O [MP6]	14900 ± 340	14.71 ± 0.045	0.662 ± 0.031		1.755	1.162 ± 0.003	12.664		
C=C[C@@](C)(/C=C/c1ccc(OC(=O)CC/C(C)=C/Cc2c(O)c3c(c(C)c2OC)COC3=O)cc1)CCC=C(C)C [P3]	20100 ± 258	14.117 ± 0.007	1.34 ± 0.035			1.052 ± 0.004	13.419		
COc1c(C)c2c(c(O)c1C/C=C(\C)CCC(=O)Oc1ccc(/C=C/C(C)=O)cc1)C(=O)OC2 [P6]	35800 ± 403	8.836 ± 0.02	2.84 ± 0.033		0.780	2.215 ± 0.004	3.989		
Cc1c(C)c2c(c(C)c1O)CCC(C)(C(=O)O)O2 (stereo not drawn) [Trolox, reference compound]	8								
